Data from the supplement of paper PMC10307832.

What was measured:
Test in all cases: relative viability (nuclei count vs DMSO), 5 days (fraction); higher = more cells survive
[1] = compound: COc1cc2/c(=N/c3ccc(Br)cc3F)nc[nH]c2cc1OCC1CCN(C)CC1 [Vandetanib] + CS(=O)(=O)N1CCN(Cc2cc3nc(-c4cccc5[nH]ncc45)nc(N4CCOCC4)c3s2)CC1 [Pictilisib] (partner 1 µM)
Summary of the method: (§1)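 Values are medians from duplicate plates. Each reflects relative viability, defined as the nuclei count of treated wells over that of vehicle wells. Lung cancer cell lines in 1536-well plates were pin-tool dosed one day after seeding with one drug alone or with a fixed anchor-drug dose plus five library-drug doses (not always all listed) in √10 steps, then fixed, stained and imaged at 4× after 5 days.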

[2] = compound: C#Cc1cccc(Nc2ncnc3cc(OC)c(OCCCCCCC(=O)NO)cc23)c1 [CUDC-101] + C[C@@H](Oc1cc(-c2cnn(C3CCNCC3)c2)cnc1N)c1c(Cl)ccc(F)c1Cl [Crizotinib] (partner 1 µM)
Summary of the method: as §1

[3] = compound: C#Cc1cccc(Nc2ncnc3cc(OC)c(OCCCCCCC(=O)NO)cc23)c1 [CUDC-101] + Cc1nc(Nc2ncc(C(=O)Nc3c(C)cccc3Cl)s2)cc(N2CCN(CCO)CC2)n1 [Dasatinib] (partner 0.075 µM)
Summary of the method: as §1

[4] = compound: C#Cc1cccc(Nc2ncnc3cc(OC)c(OCCCCCCC(=O)NO)cc23)c1 [CUDC-101] + Cc1nc(NC(=O)N2CCC[C@H]2C(N)=O)sc1-c1ccnc(C(C)(C)C(F)(F)F)c1 [Alpelisib] (partner 2 µM)
Summary of the method: as §1

| Cell Line | relative viability ([1]; first compound 0.02 µM) | relative viability ([1]; first compound 0.06325 µM) | relative viability ([1]; first compound 0.2 µM) | relative viability ([1]; first compound 0.6325 µM) | relative viability ([1]; first compound 2 µM) | relative viability ([2]; first compound 0.01 µM) | relative viability ([2]; first compound 0.03162 µM) | relative viability ([2]; first compound 0.1 µM) | relative viability ([2]; first compound 0.3162 µM) | relative viability ([2]; first compound 1 µM) | relative viability ([3]; first compound 0.01 µM) | relative viability ([3]; first compound 0.03162 µM) | relative viability ([3]; first compound 0.1 µM) | relative viability ([3]; first compound 0.3162 µM) | relative viability ([3]; first compound 1 µM) | relative viability ([4]; first compound 0.01 µM) | relative viability ([4]; first compound 0.03162 µM) | relative viability ([4]; first compound 0.1 µM) | relative viability ([4]; first compound 0.3162 µM) | relative viability ([4]; first compound 1 µM) |
| --- | --- | --- | --- | --- | --- | --- | --- | --- | --- | --- | --- | --- | --- | --- | --- | --- | --- | --- | --- | --- |
| LOU-NH91 | 0.528 | 0.565 | 0.508 | 0.524 | 0.515 | 0.701 | 0.605 | 0.699 | 0.521 | 0.539 | 0.596 | 0.509 | 0.469 | 0.486 | 0.38 | 0.652 | 0.533 | 0.509 | 0.574 | 0.482 |
| LU99A | 0.304 | 0.327 | 0.336 | 0.29 | 0.306 | 0.516 | 0.585 | 0.458 | 0.45 | 0.256 | 0.596 | 0.508 | 0.507 | 0.64 | 0.432 | 0.584 | 0.603 | 0.518 | 0.433 | 0.263 |
| LXF-289 | 0.828 | 0.771 | 0.773 | 0.792 | 0.798 | 0.804 | 0.835 | 0.828 | 0.736 | 0.577 | 0.248 | 0.203 | 0.245 | 0.394 | 0.182 | 0.991 | 1.08 | 0.994 | 1.07 | 0.815 |
| NCI-H23 | 0.423 | 0.427 | 0.509 | 0.424 | 0.506 | 0.68 | 0.442 | 0.639 | 0.547 | 0.495 | 0.777 | 0.795 | 0.826 | 0.856 | 0.733 | 0.775 | 0.592 | 0.727 | 0.652 | 0.718 |
| NCI-H322M | 0.397 | 0.517 | 0.498 | 0.459 | 0.351 | 0.958 | 0.903 | 0.774 | 0.748 | 0.538 | 0.28 | 0.243 | 0.224 | 0.236 | 0.276 | 0.775 | 0.704 | 0.725 | 0.733 | 0.725 |
| NCI-H358 | 0.285 | 0.328 | 0.331 | 0.316 | 0.241 | 0.558 | 0.581 | 0.435 | 0.497 | 0.236 | 0.157 | 0.164 | 0.166 | 0.16 | 0.131 | 1.21 | 0.871 | 0.926 | 0.71 | 0.415 |
| NCI-H441 | 0.333 | 0.49 | 0.425 | 0.527 | 0.452 | 0.833 | 0.739 | 0.87 | 0.843 | 0.514 | 0.691 | 0.523 | 0.683 | 0.646 | 0.678 | 0.842 | 0.847 | 0.879 | 0.589 | 0.572 |
| NCI-H460 | 0.351 | 0.359 | 0.349 | 0.371 | 0.331 | 1.04 | 0.982 | 0.719 | 1.06 | 0.787 | 0.555 | 0.506 | 0.524 | 0.602 | 0.44 | 0.478 | 0.42 | 0.589 | 0.443 | 0.465 |
| NCI-H520 | 0.289 | 0.258 | 0.245 | 0.345 | 0.263 | 0.743 |  | 0.756 | 0.636 | 0.316 | 0.196 | 0.166 | 0.192 | 0.259 | 0.218 | 1.09 |  | 0.791 | 0.706 | 0.373 |
| NCI-H596 | 0.395 | 0.35 | 0.323 | 0.398 | 0.352 | 0.675 | 1 | 1.01 | 0.979 | 0.536 | 0.666 | 0.603 | 0.601 | 0.604 | 0.588 | 0.463 | 0.395 | 0.481 | 0.465 | 0.512 |
| NCI-H647 | 0.457 | 0.419 | 0.349 | 0.412 | 0.161 | 1.27 | 1.03 | 1.09 | 0.909 | 0.533 | 0.255 | 0.198 | 0.23 | 0.224 | 0.136 | 1.48 | 1.14 | 1.33 | 1.18 | 0.794 |
| NCI-H650 | 0.809 | 0.849 | 0.884 | 0.908 | 0.811 | 0.835 | 0.783 | 0.771 | 0.532 | 0.454 | 0.486 | 0.482 | 0.495 | 0.436 | 0.337 | 1.19 | 1.06 | 1.29 | 1.17 | 0.885 |
| NCI-H661 | 0.381 |  | 0.373 | 0.382 | 0.347 | 1.07 | 1.08 | 0.954 | 1.03 | 0.943 | 0.926 | 0.926 | 0.862 | 0.815 | 0.386 | 0.792 | 0.609 | 0.794 | 0.575 | 0.595 |
| NCI-H727 | 0.33 | 0.272 | 0.341 | 0.325 | 0.309 | 0.913 | 0.931 | 0.738 | 0.647 | 0.361 | 0.298 | 0.422 | 0.359 | 0.375 | 0.311 | 0.59 | 0.478 | 0.698 | 0.595 | 0.295 |
| NCI-H838 | 0.461 | 0.357 | 0.457 | 0.426 | 0.415 | 0.87 | 0.74 | 0.832 | 0.669 | 0.382 | 0.338 |  | 0.308 | 0.335 | 0.358 | 1.01 | 0.89 | 1.06 | 1.08 | 0.914 |
| NCI-H1355 | 0.438 | 0.367 | 0.425 | 0.496 | 0.482 | 1.06 | 1.02 | 1.15 | 1.07 | 0.906 | 0.747 | 0.672 | 0.717 | 0.741 | 0.523 | 0.873 | 0.738 | 1.02 | 0.807 | 0.566 |
